In the NIST ThermoML archive (doi:10.1021/je050065n):
± gives the expanded uncertainty stated by the source.

Columns and labels:
[1] = molar heat capacity at constant pressure; details: 101.33 kPa
[2] = Molar enthalpy of transition or fusion; details: Crystal

CCCCCCCCCCC(=O)OCC [ethyl undecanoate]
[1]
Details | molar heat capacity at constant pressure [J/K/mol]
111.58 K, Crystal | 173.66 ± 3
113.84 K, Crystal | 175.94 ± 3
116.71 K, Crystal | 178.91 ± 3
119.57 K, Crystal | 181.88 ± 3.1
122.42 K, Crystal | 185.27 ± 3.1
128.15 K, Crystal | 190.48 ± 3.1
131.02 K, Crystal | 194.47 ± 3.2
133.86 K, Crystal | 198.69 ± 3.2
136.66 K, Crystal | 198.56 ± 3.2
139.44 K, Crystal | 201.64 ± 3.2
142.19 K, Crystal | 204.69 ± 3.2
144.9 K, Crystal | 207.94 ± 3.3
147.59 K, Crystal | 211.29 ± 3.3
150.26 K, Crystal | 213.75 ± 3.3
152.89 K, Crystal | 217.3 ± 3.3
155.51 K, Crystal | 220.97 ± 3.4
158.1 K, Crystal | 224.09 ± 3.4
160.67 K, Crystal | 229.12 ± 3.4
163.21 K, Crystal | 233.25 ± 3.5
165.73 K, Crystal | 236.15 ± 3.5
168.24 K, Crystal | 230.57 ± 3.4
170.74 K, Crystal | 232.17 ± 3.5
173.23 K, Crystal | 234.76 ± 3.5
175.7 K, Crystal | 236.78 ± 3.5
178.15 K, Crystal | 239.4 ± 3.5
180.59 K, Crystal | 242.15 ± 3.5
183.01 K, Crystal | 244.19 ± 3.5
185.42 K, Crystal | 245.75 ± 3.6
187.81 K, Crystal | 248.17 ± 3.6
190.18 K, Crystal | 251.89 ± 3.6
192.55 K, Crystal | 256.43 ± 3.6
194.9 K, Crystal | 257.21 ± 3.7
197.24 K, Crystal | 257.78 ± 3.7
199.56 K, Crystal | 262.12 ± 3.7
201.88 K, Crystal | 266.33 ± 3.7
204.18 K, Crystal | 269.86 ± 3.8
206.47 K, Crystal | 268.45 ± 3.8
208.75 K, Crystal | 272.25 ± 3.8
211.01 K, Crystal | 276.09 ± 3.8
213.26 K, Crystal | 279.59 ± 3.8
215.5 K, Crystal | 279.55 ± 3.8
217.73 K, Crystal | 283.48 ± 3.9
219.95 K, Crystal | 287.5 ± 3.9
222.16 K, Crystal | 290.42 ± 3.9
224.36 K, Crystal | 293.74 ± 4
226.54 K, Crystal | 297.69 ± 4
228.71 K, Crystal | 302.05 ± 4
230.87 K, Crystal | 307.08 ± 4.1
233.01 K, Crystal | 312.1 ± 4.1
235.14 K, Crystal | 318.94 ± 4.2
237.26 K, Crystal | 327.12 ± 4.2
239.36 K, Crystal | 337.32 ± 4.3
241.44 K, Crystal | 349.15 ± 4.4
243.49 K, Crystal | 366.65 ± 4.5
245.51 K, Crystal | 390.29 ± 4.7
247.49 K, Crystal | 425.06 ± 5
265.23 K, Liquid | 419.66 ± 2.5
267.18 K, Liquid | 419.56 ± 2.5
269.12 K, Liquid | 420.55 ± 2.5
271.06 K, Liquid | 421.01 ± 2.5
272.99 K, Liquid | 421.34 ± 2.5
274.93 K, Liquid | 422.4 ± 2.5
276.86 K, Liquid | 423.5 ± 2.5
278.79 K, Liquid | 424.54 ± 2.5
280.72 K, Liquid | 424.74 ± 2.5
282.65 K, Liquid | 425.25 ± 2.5
284.57 K, Liquid | 425.82 ± 2.5
286.49 K, Liquid | 426.92 ± 2.5
288.42 K, Liquid | 427.56 ± 2.5
290.34 K, Liquid | 427.6 ± 2.5
292.25 K, Liquid | 429.47 ± 2.5
292.35 K, Liquid | 429.73 ± 2.5
293.82 K, Liquid | 430.15 ± 2.5
294.17 K, Liquid | 430.48 ± 2.5
295.74 K, Liquid | 431.35 ± 2.5
296.09 K, Liquid | 431.3 ± 2.5
297.65 K, Liquid | 432.04 ± 2.5
298 K, Liquid | 431.45 ± 2.5
299.55 K, Liquid | 433.51 ± 2.5
299.92 K, Liquid | 432.3 ± 2.5
301.45 K, Liquid | 434.67 ± 2.5
301.84 K, Liquid | 434.2 ± 2.5
303.35 K, Liquid | 436.03 ± 2.5
303.75 K, Liquid | 436.09 ± 2.5
305.23 K, Liquid | 437.3 ± 2.5
305.67 K, Liquid | 436.86 ± 2.5
307.12 K, Liquid | 438.29 ± 2.5
307.58 K, Liquid | 437.94 ± 2.5
309 K, Liquid | 438.55 ± 2.5
309.5 K, Liquid | 438.69 ± 2.5
310.87 K, Liquid | 439.73 ± 2.6
311.41 K, Liquid | 439.51 ± 2.6
312.74 K, Liquid | 440.36 ± 2.6
313.32 K, Liquid | 440.63 ± 2.6
314.61 K, Liquid | 441.72 ± 2.6
315.24 K, Liquid | 441.69 ± 2.6
316.48 K, Liquid | 441.83 ± 2.6
317.15 K, Liquid | 443.16 ± 2.6
318.35 K, Liquid | 443.44 ± 2.6
320.22 K, Liquid | 444.36 ± 2.6
322.09 K, Liquid | 445.9 ± 2.6
323.96 K, Liquid | 447.6 ± 2.6
325.83 K, Liquid | 448.49 ± 2.6
327.7 K, Liquid | 449.5 ± 2.6
329.57 K, Liquid | 450.4 ± 2.6
331.44 K, Liquid | 451.66 ± 2.6
333.31 K, Liquid | 453.33 ± 2.6
335.19 K, Liquid | 455.41 ± 2.6
337.06 K, Liquid | 456.14 ± 2.6
338.94 K, Liquid | 456.81 ± 2.6
340.81 K, Liquid | 458.35 ± 2.6
342.69 K, Liquid | 459.47 ± 2.6
344.57 K, Liquid | 461 ± 2.6
346.45 K, Liquid | 462.31 ± 2.6
348.34 K, Liquid | 463.75 ± 2.7
350.22 K, Liquid | 465.1 ± 2.7
352.11 K, Liquid | 466.34 ± 2.7
354 K, Liquid | 467.34 ± 2.7
355.9 K, Liquid | 468.59 ± 2.7
357.8 K, Liquid | 469.5 ± 2.7
359.7 K, Liquid | 471.05 ± 2.7
361.6 K, Liquid | 472.21 ± 2.7
363.51 K, Liquid | 473.69 ± 2.7
365.42 K, Liquid | 475.18 ± 2.7

Details | Molar enthalpy of transition or fusion [kcal/mol] | Normal melting temperature [°C] | Triple point temperature [K]
Crystal | – | – | 259.17 ± 0.31
Metastable crystal | – | -21.8 ± 0.1 | –
[2] | 8.628 ± 0.0717 | – | –
